# According to US20230365546A1, “5-SUBSTITUTED INDOLE 3-AMIDE DERIVATIVES, PREPARATION METHOD AND USE THEREOF” (ORIGIANT PHARMACEUTICAL CO., LTD, priority 2020, published 2023):
# What was measured:
# Experiment in all cases: Kinase Profiler 10 μM panel
# SIK3(h) = SIK3(h) (Homo sapiens (Human), UniProt Q9Y2K2)
# Procedure: (§1) In vitro kinase assays were conducted using Kinase Profiler services provided by Eurofins. The experimental method was as follows: the small molecule compound to be tested (0.001-10 μM), the protein kinase to be tested were incubated with a buffer containing substrate, 10 mM magnesium acetate, and [γ-^33P-ATP], the reaction was started by adding Mg\TPmix, after incubation for a period of time at room temperature, a 3% phosphate solution was added to the buffer to stop the reaction. Subsequently, 10 μL of the reaction mixture was quantitatively pipetted onto P30 filter paper, which was washed three times with 75 mM phosphate solution and then once with methanol. The P30 filter paper was air-dried and scintillation fluid was added for scintillation counting.
# NEK1(h) = NEK1(h) (Homo sapiens (Human), UniProt Q96PY6)
# Procedure: as §1
# GRK3(h) = GRK3(h) (Homo sapiens (Human), UniProt P35626)
# Procedure: as §1
# FGFR1(h) = FGFR1(h) (Homo sapiens (Human), UniProt P11362)
# Procedure: as §1
# IRE1(h) = IRE1(h) (Homo sapiens (Human), UniProt O75460)
# Procedure: as §1
# EphA7(h) = EphA7(h) (Homo sapiens (Human), UniProt Q15375)
# Procedure: as §1
# Hck(h) = Hck(h) (Homo sapiens (Human), UniProt P08631)
# Procedure: as §1
# [1] = target: PI3 Kinase (p110d/p85a)(h) (Homo sapiens (Human), UniProt O00329)
# Procedure: as §1
# SIK2(h) = SIK2(h) (Homo sapiens (Human), UniProt Q9H0K1)
# Procedure: as §1
# CDK16/cyclinY(h) = CDK16/cyclinY(h) (Homo sapiens (Human), UniProt Q00536)
# Procedure: as §1
# NEK9(h) = NEK9(h) (Homo sapiens (Human), UniProt Q8TD19)
# Procedure: as §1
# PKG1β(h) = PKG1β(h) (Homo sapiens (Human), UniProt Q13976)
# Procedure: as §1
# NIM1(h) = NIM1(h) (Homo sapiens (Human), UniProt Q8IY84)
# Procedure: as §1
# Rse(h) = Rse(h) (Homo sapiens (Human), UniProt Q06418)
# Procedure: as §1
# CLIK1(h) = CLIK1(h) (Homo sapiens (Human), UniProt Q8TDR2)
# Procedure: The experimental method was as follows: the small molecule compound to be tested (0.001-10 μM), the protein kinase to be tested were incubated with a buffer containing substrate, 10 mM magnesium acetate, and [γ-^33P-ATP], the reaction was started by adding Mg\TPmix, after incubation for a period of time at room temperature, a 3% phosphate solution was added to the buffer to stop the reaction. Subsequently, 10 μL of the reaction mixture was quantitatively pipetted onto P30 filter paper, which was washed three times with 75 mM phosphate solution and then once with methanol. The P30 filter paper was air-dried and scintillation fluid was added for scintillation counting.
# MST1(h) = MST1(h) (Homo sapiens (Human), UniProt Q13043)
# Procedure: as §1
# MuSK(h) = MuSK(h) (Homo sapiens (Human), UniProt O15146)
# Procedure: as §1
# PDGFRα(D842V)(h) = PDGFRα(D842V)(h) (Homo sapiens (Human), UniProt P16234, D842V)
# Procedure: as §1
# Lck(h) = Lck(h) (Homo sapiens (Human), UniProt P06239)
# Procedure: as §1
# PKBα(h) = PKBα(h) (Homo sapiens (Human), UniProt P31749)
# Procedure: as §1
# CDK1/cyclinB(h) = CDK1/cyclinB(h) (Homo sapiens (Human), UniProt P06493)
# Procedure: as §1
# Axl(h) = Axl(h) (Homo sapiens (Human), UniProt P30530)
# Procedure: as §1
# PI3 Kinase (p120g)(h) = PI3 Kinase (p120g)(h) (Homo sapiens (Human), UniProt P48736)
# Procedure: as §1
# MST4(h) = MST4(h) (Homo sapiens (Human), UniProt Q9P289)
# TSSK3(h) = TSSK3(h) (Homo sapiens (Human), UniProt Q96PN8)
# Procedure: as §1
# CK1ϵ(h) = CK1ϵ(h) (Homo sapiens (Human), UniProt P49674)
# Procedure: as §1
# TAO2(h) = TAO2(h) (Homo sapiens (Human), UniProt Q9UL54)
# Procedure: as §1
# EphB1(h) = EphB1(h) (Homo sapiens (Human), UniProt P54762)
# Procedure: as §1
# CK1γ3(h) = CK1γ3(h) (Homo sapiens (Human), UniProt Q9Y6M4)
# Procedure: as §1
# PKCθ(h) = PKCθ(h) (Homo sapiens (Human), UniProt Q04759)
# Procedure: as §1
# DCAMKL2(h) = DCAMKL2(h) (Homo sapiens (Human), UniProt Q8N568)
# Procedure: as §1
# [2] = target: PI3 Kinase (p110b/p85a)(h) (Homo sapiens (Human), UniProt P42338)
# Procedure: as §1
# CDKL3(h) = CDKL3(h) (Homo sapiens (Human), UniProt Q8IVW4)
# Procedure: as §1
# ACK1(h) = ACK1(h) (Homo sapiens (Human), UniProt Q07912)
# Procedure: as §1
# Sequence of PI3 Kinase (p110b/p85a)(h) (P42338 whole entry): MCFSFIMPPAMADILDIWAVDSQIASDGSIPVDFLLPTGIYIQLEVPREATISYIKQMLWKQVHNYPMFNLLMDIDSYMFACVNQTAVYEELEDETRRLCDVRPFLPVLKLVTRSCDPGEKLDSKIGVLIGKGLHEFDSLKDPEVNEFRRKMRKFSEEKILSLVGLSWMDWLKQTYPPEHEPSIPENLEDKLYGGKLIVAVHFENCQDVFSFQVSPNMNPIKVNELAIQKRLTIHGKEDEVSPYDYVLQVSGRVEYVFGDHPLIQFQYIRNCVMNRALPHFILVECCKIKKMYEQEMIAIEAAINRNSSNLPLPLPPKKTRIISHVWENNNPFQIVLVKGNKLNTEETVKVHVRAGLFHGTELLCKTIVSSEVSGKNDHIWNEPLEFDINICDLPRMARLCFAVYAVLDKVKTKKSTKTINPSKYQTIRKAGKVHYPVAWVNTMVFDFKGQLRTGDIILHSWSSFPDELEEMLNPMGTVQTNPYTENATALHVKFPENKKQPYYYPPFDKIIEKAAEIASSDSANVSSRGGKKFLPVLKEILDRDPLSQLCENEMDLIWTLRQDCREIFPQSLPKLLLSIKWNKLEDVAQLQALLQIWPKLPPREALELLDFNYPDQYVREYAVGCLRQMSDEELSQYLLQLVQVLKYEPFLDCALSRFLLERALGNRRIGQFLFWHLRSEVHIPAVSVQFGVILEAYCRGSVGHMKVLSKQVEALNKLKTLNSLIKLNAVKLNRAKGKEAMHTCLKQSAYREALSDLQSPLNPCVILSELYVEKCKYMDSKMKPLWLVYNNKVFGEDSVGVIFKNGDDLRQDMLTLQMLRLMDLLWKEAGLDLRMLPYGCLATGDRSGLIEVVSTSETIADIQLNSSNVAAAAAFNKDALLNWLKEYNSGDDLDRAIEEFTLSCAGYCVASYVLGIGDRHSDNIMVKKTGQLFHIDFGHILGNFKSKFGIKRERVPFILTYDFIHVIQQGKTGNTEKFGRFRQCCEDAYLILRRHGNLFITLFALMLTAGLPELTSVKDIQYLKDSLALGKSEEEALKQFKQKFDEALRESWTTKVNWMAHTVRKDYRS
# Sequence of PI3 Kinase (p110b/p85a)(h) (P27986 whole entry partner): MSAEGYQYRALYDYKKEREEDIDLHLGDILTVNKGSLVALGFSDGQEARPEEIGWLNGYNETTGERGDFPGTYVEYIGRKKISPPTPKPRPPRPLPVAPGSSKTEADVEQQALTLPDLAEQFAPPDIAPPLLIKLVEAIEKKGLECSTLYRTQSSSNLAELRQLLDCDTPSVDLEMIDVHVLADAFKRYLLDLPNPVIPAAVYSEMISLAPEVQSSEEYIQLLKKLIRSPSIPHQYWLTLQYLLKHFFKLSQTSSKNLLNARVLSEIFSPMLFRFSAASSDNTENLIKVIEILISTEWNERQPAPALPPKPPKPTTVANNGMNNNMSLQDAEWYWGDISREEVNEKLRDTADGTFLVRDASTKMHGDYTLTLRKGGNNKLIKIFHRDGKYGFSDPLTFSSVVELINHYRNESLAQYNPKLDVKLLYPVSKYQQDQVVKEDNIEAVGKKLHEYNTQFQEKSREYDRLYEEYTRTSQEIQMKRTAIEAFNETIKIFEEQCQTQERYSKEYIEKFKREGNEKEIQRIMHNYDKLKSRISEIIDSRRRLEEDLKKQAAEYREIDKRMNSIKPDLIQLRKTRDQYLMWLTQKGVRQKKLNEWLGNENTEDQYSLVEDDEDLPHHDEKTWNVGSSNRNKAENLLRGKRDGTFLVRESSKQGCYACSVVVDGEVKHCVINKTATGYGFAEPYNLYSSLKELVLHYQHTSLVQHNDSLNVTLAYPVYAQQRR
# Sequence of NEK9(h) (Q8TD19 whole entry): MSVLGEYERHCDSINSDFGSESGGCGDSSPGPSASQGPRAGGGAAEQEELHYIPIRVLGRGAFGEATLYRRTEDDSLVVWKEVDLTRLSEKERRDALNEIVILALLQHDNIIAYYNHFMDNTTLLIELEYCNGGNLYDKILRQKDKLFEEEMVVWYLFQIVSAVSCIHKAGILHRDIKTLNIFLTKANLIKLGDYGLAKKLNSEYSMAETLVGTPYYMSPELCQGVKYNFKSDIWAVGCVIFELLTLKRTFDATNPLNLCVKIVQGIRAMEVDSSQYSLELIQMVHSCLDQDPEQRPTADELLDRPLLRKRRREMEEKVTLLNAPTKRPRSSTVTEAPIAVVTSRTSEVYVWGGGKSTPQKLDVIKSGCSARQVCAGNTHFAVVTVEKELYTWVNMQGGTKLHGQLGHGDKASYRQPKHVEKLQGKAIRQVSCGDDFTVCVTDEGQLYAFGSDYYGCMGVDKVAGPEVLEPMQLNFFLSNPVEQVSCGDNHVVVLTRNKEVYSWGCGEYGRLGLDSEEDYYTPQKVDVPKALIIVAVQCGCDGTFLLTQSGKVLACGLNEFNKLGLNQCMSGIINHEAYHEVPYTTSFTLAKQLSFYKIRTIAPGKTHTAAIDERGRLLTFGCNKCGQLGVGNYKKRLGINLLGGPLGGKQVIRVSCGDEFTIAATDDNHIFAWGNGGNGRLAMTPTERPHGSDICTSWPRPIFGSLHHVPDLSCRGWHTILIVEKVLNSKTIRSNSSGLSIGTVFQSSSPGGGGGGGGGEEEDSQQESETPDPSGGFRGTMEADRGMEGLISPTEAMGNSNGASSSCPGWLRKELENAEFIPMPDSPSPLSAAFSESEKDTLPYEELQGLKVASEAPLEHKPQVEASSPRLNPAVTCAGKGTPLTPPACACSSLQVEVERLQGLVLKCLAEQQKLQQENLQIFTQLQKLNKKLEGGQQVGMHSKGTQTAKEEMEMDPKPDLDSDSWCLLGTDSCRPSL
# Sequence of GRK3(h) (P35626 whole entry): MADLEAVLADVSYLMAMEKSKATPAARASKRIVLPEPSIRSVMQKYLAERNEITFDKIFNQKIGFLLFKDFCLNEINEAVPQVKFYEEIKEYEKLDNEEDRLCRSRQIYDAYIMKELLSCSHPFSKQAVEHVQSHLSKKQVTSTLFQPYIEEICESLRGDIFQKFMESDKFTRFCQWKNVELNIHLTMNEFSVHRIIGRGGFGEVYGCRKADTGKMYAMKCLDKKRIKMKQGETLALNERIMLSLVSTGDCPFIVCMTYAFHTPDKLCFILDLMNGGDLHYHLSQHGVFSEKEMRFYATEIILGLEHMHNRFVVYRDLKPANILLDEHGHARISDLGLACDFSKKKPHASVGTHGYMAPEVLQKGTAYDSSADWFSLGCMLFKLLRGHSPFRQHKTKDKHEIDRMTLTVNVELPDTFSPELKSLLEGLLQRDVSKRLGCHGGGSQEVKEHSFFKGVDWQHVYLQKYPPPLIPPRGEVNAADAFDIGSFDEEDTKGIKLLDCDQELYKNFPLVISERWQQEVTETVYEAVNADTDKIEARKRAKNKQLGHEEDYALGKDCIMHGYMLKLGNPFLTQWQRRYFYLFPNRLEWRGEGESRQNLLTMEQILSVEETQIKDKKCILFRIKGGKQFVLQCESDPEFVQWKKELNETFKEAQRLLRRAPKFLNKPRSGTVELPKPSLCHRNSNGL
# Sequence of CDK16/cyclinY(h) (Q00536 whole entry): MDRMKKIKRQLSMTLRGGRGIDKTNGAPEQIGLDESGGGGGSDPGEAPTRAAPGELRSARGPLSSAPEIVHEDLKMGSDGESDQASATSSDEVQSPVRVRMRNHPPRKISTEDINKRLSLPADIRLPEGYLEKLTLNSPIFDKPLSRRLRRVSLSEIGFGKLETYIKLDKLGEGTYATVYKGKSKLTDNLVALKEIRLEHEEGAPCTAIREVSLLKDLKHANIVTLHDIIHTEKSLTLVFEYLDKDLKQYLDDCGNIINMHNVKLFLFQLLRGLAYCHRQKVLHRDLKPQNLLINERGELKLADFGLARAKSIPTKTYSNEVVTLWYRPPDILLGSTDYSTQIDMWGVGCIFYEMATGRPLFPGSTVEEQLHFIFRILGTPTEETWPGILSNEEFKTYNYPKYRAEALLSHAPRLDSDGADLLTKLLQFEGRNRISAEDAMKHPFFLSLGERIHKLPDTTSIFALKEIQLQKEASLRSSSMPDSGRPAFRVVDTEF
# Sequence of CDK16/cyclinY(h) (Q8ND76 whole entry partner): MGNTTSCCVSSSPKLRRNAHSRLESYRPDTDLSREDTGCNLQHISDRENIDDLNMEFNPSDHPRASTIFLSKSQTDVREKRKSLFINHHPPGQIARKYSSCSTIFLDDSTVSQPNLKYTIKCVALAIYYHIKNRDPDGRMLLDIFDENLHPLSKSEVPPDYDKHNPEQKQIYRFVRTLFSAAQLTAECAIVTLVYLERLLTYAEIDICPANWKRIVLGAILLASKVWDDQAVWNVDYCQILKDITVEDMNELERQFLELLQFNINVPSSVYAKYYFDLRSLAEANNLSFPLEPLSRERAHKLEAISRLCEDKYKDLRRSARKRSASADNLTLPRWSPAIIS
# Sequence of TSSK3(h) (Q96PN8 whole entry): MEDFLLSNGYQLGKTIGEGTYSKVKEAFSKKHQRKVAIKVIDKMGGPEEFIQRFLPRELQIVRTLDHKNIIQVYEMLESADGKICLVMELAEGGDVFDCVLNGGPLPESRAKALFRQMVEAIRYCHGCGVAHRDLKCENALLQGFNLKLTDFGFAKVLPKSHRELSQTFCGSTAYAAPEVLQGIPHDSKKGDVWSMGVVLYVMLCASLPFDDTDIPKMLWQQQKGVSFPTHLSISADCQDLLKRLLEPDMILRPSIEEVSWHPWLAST
# Sequence of MST4(h) (Q9P289 whole entry): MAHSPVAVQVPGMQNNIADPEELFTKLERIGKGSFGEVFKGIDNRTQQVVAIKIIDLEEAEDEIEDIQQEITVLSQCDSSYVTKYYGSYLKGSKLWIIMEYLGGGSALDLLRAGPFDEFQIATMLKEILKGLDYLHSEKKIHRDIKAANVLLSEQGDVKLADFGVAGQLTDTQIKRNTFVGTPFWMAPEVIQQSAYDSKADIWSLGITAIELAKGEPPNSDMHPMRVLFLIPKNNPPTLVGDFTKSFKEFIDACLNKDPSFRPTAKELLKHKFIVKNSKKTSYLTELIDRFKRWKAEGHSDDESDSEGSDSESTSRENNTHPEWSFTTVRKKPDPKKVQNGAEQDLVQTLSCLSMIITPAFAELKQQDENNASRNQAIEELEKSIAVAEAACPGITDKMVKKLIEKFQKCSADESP
smiles,measurement,setting,value
"C[C@H](NC(=O)c1c[nH]c2ccc(-c3ccc4nc(NC(=O)C5CC5)sc4c3)cc12)c1cccc(F)c1 [Compound 34, (S)-5-(2-(cyclopropanecarboxamido)benzo[d]thiazol-6-yl)-N-(1-(3-fluorophenyl)ethyl)-1H-indole-3-carboxamide]",Inhibition ratio,SIK3(h),23%
same,Inhibition ratio,NEK1(h),18%
same,Inhibition ratio,GRK3(h),−1%
same,Inhibition ratio,FGFR1(h),72%
same,Inhibition ratio,IRE1(h),16%
same,Inhibition ratio,EphA7(h),96%
same,Inhibition ratio,Hck(h),37%
same,Inhibition ratio,[1],54%
same,Inhibition ratio,SIK2(h),39%
same,Inhibition ratio,CDK16/cyclinY(h),−30%
same,Inhibition ratio,NEK9(h),13%
same,Inhibition ratio,PKG1β(h),7%
same,Inhibition ratio,NIM1(h),−19%
same,Inhibition ratio,Rse(h),69%
same,Inhibition ratio,CLIK1(h),22%
same,Inhibition ratio,MST1(h),5%
same,Inhibition ratio,MuSK(h),88%
same,Inhibition ratio,PDGFRα(D842V)(h),56%
same,Inhibition ratio,Lck(h),65%
same,Inhibition ratio,PKBα(h),11%
same,Inhibition ratio,CDK1/cyclinB(h),13%
same,Inhibition ratio,Axl(h),86%
same,Inhibition ratio,PI3 Kinase (p120g)(h),35%
same,Inhibition ratio,MST4(h),11%
same,Inhibition ratio,TSSK3(h),−6%
same,Inhibition ratio,CK1ϵ(h),35%
same,Inhibition ratio,TAO2(h),58%
same,Inhibition ratio,EphB1(h),45%
same,Inhibition ratio,CK1γ3(h),−15%
same,Inhibition ratio,PKCθ(h),−24%
same,Inhibition ratio,DCAMKL2(h),6%
same,Inhibition ratio,[2],16%
same,Inhibition ratio,CDKL3(h),51%
same,Inhibition ratio,ACK1(h),35%
"C[C@H](NC(=O)c1cn(C)c2ccc(-c3ccn4nc(NC(=O)C5CC5)nc4c3)cc12)c1cccc(F)c1 [Compound 94, (S)-5-(2-(cyclopropanecarboxamido)-[1,2,4]triazolo[1,5-a]pyridin-7-yl)-N-(1-(3-fluorophenyl)ethyl)-1-methyl-1H-indole-3-carboxamide]",Inhibition ratio/%,SIK3(h),47%
same,Inhibition ratio/%,NEK1(h),50%
same,Inhibition ratio/%,GRK3(h),−12%
same,Inhibition ratio/%,FGFR1(h),70%
same,Inhibition ratio/%,IRE1(h),22%
same,Inhibition ratio/%,EphA7(h),20%
same,Inhibition ratio/%,Hck(h),−8%
same,Inhibition ratio/%,[1],−1%
same,Inhibition ratio/%,SIK2(h),−4%
same,Inhibition ratio/%,CDK16/cyclinY(h),51%
same,Inhibition ratio/%,NEK9(h),−10%
same,Inhibition ratio/%,PKG1β(h),0%
same,Inhibition ratio/%,NIM1(h),10%
same,Inhibition ratio/%,Rse(h),53%
same,Inhibition ratio/%,CLIK1(h),22%
same,Inhibition ratio/%,MST1(h),20%
same,Inhibition ratio/%,MuSK(h),13%
same,Inhibition ratio/%,PDGFRα(D842V)(h),37%
same,Inhibition ratio/%,Lck(h),44%
same,Inhibition ratio/%,PKBα(h),−11%
same,Inhibition ratio/%,CDK1/cyclinB(h),78%
same,Inhibition ratio/%,Axl(h),31%
same,Inhibition ratio/%,PI3 Kinase (p120g)(h),−12%
same,Inhibition ratio/%,MST4(h),12%
same,Inhibition ratio/%,TSSK3(h),0%
same,Inhibition ratio/%,CK1ϵ(h),59%
same,Inhibition ratio/%,TAO2(h),−14%
same,Inhibition ratio/%,EphB1(h),1%
same,Inhibition ratio/%,CK1γ3(h),−10%
same,Inhibition ratio/%,PKCθ(h),7%
same,Inhibition ratio/%,DCAMKL2(h),74%
same,Inhibition ratio/%,[2],−7%
same,Inhibition ratio/%,CDKL3(h),−5%
same,Inhibition ratio/%,ACK1(h),33%
